Laboratory results reported in US20150105252A1, “SUBSTITUTED PYRAZOLES AS HERBICIDES” (E I DU PONT DE NEMOURS AND COMPANY, priority 2013, published 2015).

Experiments:
[1] = system: barnyardgrass; test: Test A preemergence; format: in vivo, Echinochloa crus-galli; settings: preemergence; for Barnyardgrass plant response rating (0 to 100 scale, 0 is no effect, 100 is complete control): 125 g ai/ha, visual injury approx. 10 days after treatment; for Barnyardgrass plant response rating: 500 g ai/ha, visual injury after approx. 10 days, 0 to 100 scale (0 no effect, 100 complete control)
In short: (§1)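 Scoring was visual, on a scale where 100 means complete control and 0 means no effect, comparing treated with untreated plants around 10 days post-application. Compounds in surfactant-containing non-phytotoxic solvent were sprayed onto soil preemergence or onto one- to two-leaf seedlings (2–10 cm) postemergence.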

[2] = system: crabgrass, large; test: Test A postemergence; format: in vivo, Digitaria sanguinalis
In short: as §1

[3] = system: foxtail, giant; test: Test A preemergence; format: in vivo, Setaria faberii; settings: preemergence; for Foxtail, Giant plant response rating (0 to 100 scale): 125 g ai/ha, visual injury approx. 10 days after treatment; for Foxtail, Giant plant response rating: 500 g ai/ha, visual injury after approx. 10 days, 0 to 100 scale (0 no effect, 100 complete control)
In short: as §1

[4] = system: foxtail, giant; test: Test A postemergence; format: in vivo, Setaria faberii
In short: as §1

[5] = system: corn; test: Test A preemergence; format: in vivo, Zea mays; settings: preemergence; for Corn plant response rating (0 to 100 scale): 125 g ai/ha, visual injury approx. 10 days after treatment; for Corn plant response rating: 500 g ai/ha, visual injury after approx. 10 days, 0 to 100 scale (0 no effect, 100 complete control)
In short: as §1

[6] = system: morningglory; test: Test A preemergence; format: in vivo, Ipomoea spp.; settings: preemergence; for Morningglory plant response rating (0 to 100 scale): 125 g ai/ha, visual injury approx. 10 days after treatment
In short: as §1

[7] = system: wheat; test: Test A preemergence; format: in vivo, Triticum aestivum; settings: preemergence; for Wheat plant response rating (0 to 100 scale): 125 g ai/ha, visual injury approx. 10 days after treatment
In short: as §1

[8] = system: wheat; test: Test A postemergence; format: in vivo, Triticum aestivum; settings: Postemergence
In short: as §1

[9] = system: sedge, umbrella; test: Test B flood; format: in vivo, Cyperus difformis; settings: 250 g ai/ha, visual rating on 0 to 100 scale (0 no effect, 100 complete control), 13 to 15 days
In short: (§2)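 Plants were grown to the 2-leaf stage and pots flooded to 3 cm above soil. Compounds were applied directly into the paddy water, with depth kept for the test. After 13–15 days in greenhouse, response was rated visually against controls on a 0 (no effect) to 100 (complete control) scale.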

[10] = system: velvetleaf; test: Test A preemergence; format: in vivo, Abutilon theophrasti; settings: preemergence; for Velvetleaf plant response rating (0 to 100 scale): 125 g ai/ha, visual injury approx. 10 days after treatment
In short: as §1

[11] = system: morningglory; test: Test A postemergence; format: in vivo, Ipomoea spp.; settings: Postemergence
In short: as §1

[12] = system: rice; test: Test B flood; format: in vivo, Oryza sativa; settings: 250 g ai/ha, visual rating on 0 to 100 scale (0 no effect, 100 complete control), 13 to 15 days
In short: as §2

[13] = system: ducksalad; test: Test B flood; format: in vivo, Heteranthera limosa; settings: 250 g ai/ha, visual rating on 0 to 100 scale (0 no effect, 100 complete control), 13 to 15 days
In short: as §2

[14] = system: pigweed; test: Test A preemergence; format: in vivo, Amaranthus retroflexus; settings: preemergence; for Pigweed plant response rating (0 to 100 scale): 125 g ai/ha, visual injury approx. 10 days after treatment
In short: as §1

[15] = system: corn; test: Test A postemergence; format: in vivo, Zea mays
In short: as §1

[16] = system: barnyardgrass; test: Test B flood; format: in vivo, Echinochloa crus-galli; settings: 250 g ai/ha, visual rating on 0 to 100 scale (0 no effect, 100 complete control), 13 to 15 days
In short: as §2

[17] = system: velvetleaf; test: Test A postemergence; format: in vivo, Abutilon theophrasti; settings: Postemergence
In short: as §1

[18] = system: pigweed; test: Test A postemergence; format: in vivo, Amaranthus retroflexus; settings: Postemergence
In short: as §1

[19] = system: crabgrass, large; test: Test A preemergence; format: in vivo, Digitaria sanguinalis; settings: preemergence; for Crabgrass, Large plant response rating (0 to 100 scale): 125 g ai/ha, visual injury approx. 10 days after treatment; for Crabgrass, Large plant response rating: 500 g ai/ha, visual injury after approx. 10 days, 0 to 100 scale (0 no effect, 100 complete control)
In short: as §1

[20] = system: barnyardgrass; test: Test A postemergence; format: in vivo, Echinochloa crus-galli
In short: as §1

[21] = Postemergence, 500 g ai/ha, 0 to 100 scale (0 no effect, 100 complete control)
[22] = postemergence, 125 g ai/ha, about 10 days, visual rating on 0 to 100 scale (0 no effect, 100 complete control)
[23] = 500 g ai/ha, visual injury after approx. 10 days, 0 to 100 scale (0 no effect, 100 complete control)
[24] = 125 g ai/ha, 0 to 100 scale, 0 no effect, 100 complete control
[25] = 500 g ai/ha, 0 to 100 scale (0 no effect, 100 complete control)
[26] = Postemergence, 125 g ai/ha, 0 to 100 scale, 0 no effect, 100 complete control

CCc1cc(C(=O)NN(C)C)nn1Cc1ccnc(C(F)(F)F)c1 [Compound 192]
50: Corn plant response rating [15, 21] | Velvetleaf plant response rating [17, 24]
80: Velvetleaf plant response rating [17, 25] | Pigweed plant response rating [18, 24]
0: Barnyardgrass plant response rating (0 to 100 scale, 0 is no effect, 100 is complete control) [1] | Barnyardgrass plant response rating [1] | Foxtail, Giant plant response rating (0 to 100 scale) [3] | Foxtail, Giant plant response rating [3] | Corn plant response rating (0 to 100 scale) [5] | Corn plant response rating [5] | Morningglory plant response rating (0 to 100 scale) [6] | Wheat plant response rating (0 to 100 scale) [7] | Wheat plant response rating [7, 23] | Wheat plant response rating [8, 24] | Plant response rating, Sedge, Umbrella [9] | Velvetleaf plant response rating (0 to 100 scale) [10] | Velvetleaf plant response rating [10, 23] | Plant response rating, Rice [12] | Plant response rating, Ducksalad [13] | Pigweed plant response rating (0 to 100 scale) [14] | Pigweed plant response rating [14, 23] | Plant response rating, Barnyardgrass [16] | Crabgrass, Large plant response rating (0 to 100 scale) [19]
20: Crabgrass, Large plant response rating [2, 21] | Corn plant response rating [15, 22]
30: Foxtail, Giant plant response rating [4, 21] | Morningglory plant response rating [11, 24] | Barnyardgrass plant response rating [20, 21]
90: Morningglory plant response rating [11, 25] | Pigweed plant response rating [18, 25]
10: Crabgrass, Large plant response rating [2, 22] | Foxtail, Giant plant response rating [4, 22] | Morningglory plant response rating [6, 23] | Wheat plant response rating [8, 25] | Crabgrass, Large plant response rating [19] | Barnyardgrass plant response rating [20, 22]

CCc1cc(C(=O)NC2CC2)nn1Oc1cccc(C(F)(F)F)c1 [Compound 215]
30: Morningglory plant response rating [11, 24] | Plant response rating, Ducksalad [13]
10: Crabgrass, Large plant response rating [2, 26] | Foxtail, Giant plant response rating (0 to 100 scale) [3] | Foxtail, Giant plant response rating [4, 26] | Wheat plant response rating [8, 25] | Plant response rating, Rice [12] | Pigweed plant response rating (0 to 100 scale) [14] | Corn plant response rating [15, 26] | Velvetleaf plant response rating [17, 24] | Barnyardgrass plant response rating [20, 26]
100: Morningglory plant response rating [11, 25] | Crabgrass, Large plant response rating [19]
70: Foxtail, Giant plant response rating [3] | Foxtail, Giant plant response rating [4, 21]
40: Pigweed plant response rating [18, 24] | Barnyardgrass plant response rating [20, 21]
0: Barnyardgrass plant response rating (0 to 100 scale, 0 is no effect, 100 is complete control) [1] | Corn plant response rating (0 to 100 scale) [5] | Corn plant response rating [5] | Morningglory plant response rating (0 to 100 scale) [6] | Wheat plant response rating (0 to 100 scale) [7] | Wheat plant response rating [8, 24] | Velvetleaf plant response rating (0 to 100 scale) [10] | Plant response rating, Barnyardgrass [16]
50: Crabgrass, Large plant response rating (0 to 100 scale) [19]
20: Plant response rating, Sedge, Umbrella [9] | Corn plant response rating [15, 21]
60: Barnyardgrass plant response rating [1] | Crabgrass, Large plant response rating [2, 21] | Velvetleaf plant response rating [17, 25]
90: Pigweed plant response rating [18, 25]
